Experimental data as given in US6133039A, “In vivo method for determination of oxidative stress” (Washinton University, priority 2000, dated 2000).

Legend:
[1] = 3-nitrotyrosine given to animals; Tabrizi-Fard et al.; cited from earlier work
[2] = Reverse-phase HPLC analysis of urine of animals injected intravenously with o,o'-[^14 C]dityrosine; type: in vivo, mice; conditions: urine after intravenous injection
Description: Urine collected from animals injected with [^14 C]dityrosine was subjected to reverse-phase HPLC analysis with monitoring of radioactivity by scintillation spectroscopy.
o,o'-[^14 C]Dityrosine (2×10^5 cpm) was injected into the animals intravenously. Plasma was centrifuged (400×g for 20 min at 4° C.) from blood collected by retro-orbital bleeding. Tissue samples were collected from animals killed by cervical dislocation, weighed and then homogenized in deionized water. Radioactivity in tissue homogenates, plasma, and urine was determined by liquid scintillation spectroscopy (Beckman LS 3801) with correction for quenching. [^14 C]Dityrosine was prepared from L-[^14 C]tyrosine (American Radiolabeled Chemicals Co.; St. Louis, Mo.) and o,o'-[^13 C12 ]dityrosine was prepared from L-[^13 C6 ]tyrosine (Cambridge Isotope Inc.; Andover, Mass.) using horseradish peroxidase (Boehringer Mannheim Biochemicals; Indianapolis, Ind.) and H2 O2 (Fisher Scientific Co.; Pittsburgh, Pa.) and isolated by reverse-phase HPLC; (27). o,o'-[^14 C]Dityrosine and radiolabeled material in urine were analyzed by HPLC (27) using a reverse-phase column (ODS ultrasphere, 250 mm×4.6 mm, particle size 5 μm.; Beckman,) and a flow rate of 1 ml/min. The column was equilibrated with 100% solvent A (1% acetic acid in water). […] Radioactivity in each HPLC fraction was quantified by liquid scintillation spectroscopy.

[3] = Metabolic fate of radiolabeled dityrosine injected intravenously into mice (blood, tissue and urine radioactivity); type: in vivo
Description: Mice were injected with 2×10^5 cpm of [^14 C]dityrosine. FIG. 3A: Blood was collected at the indicated times by retro-orbital bleeding. FIG. 3B: Animals were sacrificed at the indicated times after injection of [^14 C]dityrosine. Recovery of radiolabeled material in tissues and urine was quantified by scintillation spectroscopy.
o,o'-[^14 C]Dityrosine (2×10^5 cpm) was injected into the animals intravenously. Plasma was centrifuged (400×g for 20 min at 4° C.) from blood collected by retro-orbital bleeding. Tissue samples were collected from animals killed by cervical dislocation, weighed and then homogenized in deionized water. Radioactivity in tissue homogenates, plasma, and urine was determined by liquid scintillation spectroscopy (Beckman LS 3801) with correction for quenching. [^14 C]Dityrosine was prepared from L-[^14 C]tyrosine (American Radiolabeled Chemicals Co.; St. Louis, Mo.) and o,o'-[^13 C12 ]dityrosine was prepared from L-[^13 C6 ]tyrosine (Cambridge Isotope Inc.; Andover, Mass.) using horseradish peroxidase (Boehringer Mannheim Biochemicals; Indianapolis, Ind.) and H2 O2 (Fisher Scientific Co.; Pittsburgh, Pa.) and isolated by reverse-phase HPLC; (27). o,o'-[^14 C]Dityrosine and radiolabeled material in urine were analyzed by HPLC (27) using a reverse-phase column (ODS ultrasphere, 250 mm×4.6 mm, particle size 5 μm.; Beckman,) and a flow rate of 1 ml/min. The column was equilibrated with 100% solvent A (1% acetic acid in water). Compounds were eluted with a discontinuous gradient of solvent B (1% acetic acid in methanol). The gradient was 0%-10% solvent B over 10 min, 10% solvent B for 4 min, 10%-100% solvent B over 5 min and 100% solvent B for 10 min. Prior to HPLC analysis, urinary amino acids were isolated by solid-phase extraction as outlined above. Recovery of radiolabeled material from urine subjected to this procedure was>90%. Radioactivity in each HPLC fraction was quantified by liquid scintillation spectroscopy.

[4] = system: peritoneal phagocytes of wild-type mice; assay: Protein-bound o,o'-dityrosine in peritoneal leukocytes activated in vivo with zymosan, isotope dilution GC/MS; set-up: species or system mice (C57BL/6J)
Description: (§1) Thioglycolate-elicited peritoneal inflammatory cells were activated in vivo with zymosan. FIG. 2A: At the indicated time (n=3 animals) or FIG. 2B: 3 h after injection of zymosan, protein-bound o,o'-dityrosine in cellular proteins was quantified by isotope dilution GC/MS.
(§2) The animal studies committee of Washington University School of Medicine in St. Louis approved all protocols. The C57BL/6J mice used for these experiments were obtained from Jackson Laboratories (Bar Harbor, […].) and bred and maintained under pathogen-free conditions. Impaired O2^.cndot.- by phorbol ester-stimulated neutrophils isolated from CGD mice deficient in gp91 phox (13) was confirmed by monitoring the superoxide dimutase inhibitable reduction of ferricytochrome c (10). Mice were fed rodent diet 5001 (Harlan-Teklad, Madison, Wis.). Between ages 9 and 11 weeks, the mice were injected with one ml of 4% thioglycollate to recruit leukocytes into the peritoneum. The leukocytes were activated 20 hours (h) later by intraperitoneal injection of zymosan (250 mg/kg). Control animals were injected with one ml of buffer A (138 mM NaCl, 3 mM KCl, 0.1 M sodium phosphate, pH 7.4). Prior to and every 2 h during urine collection, the animals were injected intraperitoneally with 2 ml of buffer A.
Animals were killed by decapitation after metophane-induced anesthesia. After the abdominal wall was washed with 95% ethanol, leukocytes were harvested from the peritoneum using a siliconized glass pipette. The peritoneum was lavaged 3 times with 4 ml of ice-cold Hanks' Balanced Salt Solution (HBSS) containing 100 μM DTPA. Cells were suspended in ice-cold HBSS, collected by low speed centrifugation, and stored at -80° C. until analysis. […]
(§3) Amino acids were converted to their n-propyl esters, heptafluorobutyryl derivatives and quantified by isotope dilution gas chromatography/mass spectrometry (GC/MS) with selected ion monitoring (20,21). […] The ions monitored were: L-tyrosine, m/z 417 and 595; L-[^13 C6 ]tyrosine, m/z 423 and 601; o,o'-dityrosine, m/z 1030 and 1208; o,o'-[^13 C12 ]dityrosine, m/z 1042 and 1220.

peritoneal phagocytes = assay: Recruitment of peritoneal cells by thioglycollate; type: in vivo, mice
From the text: as §2
Animals were killed by decapitation after metophane-induced anesthesia. After the abdominal wall was washed with 95% ethanol, leukocytes were harvested from the peritoneum using a siliconized glass pipette. The peritoneum was lavaged 3 times with 4 ml of ice-cold Hanks' Balanced Salt Solution (HBSS) containing 100 μM DTPA. Cells were suspended in ice-cold HBSS, collected by low speed centrifugation, and stored at -80° C. until analysis.
To determine whether white blood cells oxidatively damage proteins in vivo, isotope dilution GC/MS was used to quantify levels of o,o'-dityrosine in mouse peritoneal phagocytes. To recruit neutrophils into the peritoneum, the animals were injected with thioglycollate, a chemical irritant. Twenty hours after this first injection, the animals were given an intraperitoneal injection of zymosan, which stimulates phagocytes to produce H2 O2 and secrete myeloperoxidase into the phagolysosome (6). Thioglycollate-injected mice typically yielded 20-40×10^6 peritoneal cells. Neutrophils, mononuclear cells, and eosinophils represented 67±4%, 30±4%, and<1% of the harvested phagocytes (n=6 animals).

[5] = system: peritoneal phagocytes of CGD mice; assay: Protein-bound o,o'-dityrosine in peritoneal phagocytes, isotope dilution GC/MS, CGD mice; type: in vivo; conditions: 3 hours of zymosan stimulation, mice deficient in NADPH oxidase
Description: as §1
as §2, with “The leukocytes were activated 20 hours (h) later by intraperitoneal injection of zymosan (250 mg/kg). Control animals were injected with one ml of buffer A (138 mM NaCl, 3 mM KCl, 0.1 M sodium phosphate, pH 7.4). Prior to and every 2 h during urine collection, the animals were injected intraperitoneally with 2 ml of buffer A.” left out
as §3

N[C@@H](Cc1ccc(O)c([N+](=O)[O-])c1)C(=O)O [3-nitrotyrosine]
amount excreted into urine [1]: Minimal amounts

N[C@@H](Cc1ccc(O)c(-c2cc(C[C@H](N)C(=O)O)ccc2O)c1)C(=O)O [o,o'-[^14 C]dityrosine]
radioactivity in urine co-migrating with authentic o,o'-[^14 C]dityrosine [2]: More than 80%
radiolabeled material lost from the blood ([3]; 5 min after intravenous injection): more than 50%
radioactivity recovered in the urine ([3]; 1 h after intravenous injection): Thirty
radioactivity recovered in the urine ([3]; 3 h after intravenous injection): 65%
radioactivity recovered in the urine ([3]; 4 h after intravenous injection): 81%
radiolabeled material in blood, liver, spleen, and heart ([3]; after intravenous injection): essentially undetectable
radiolabeled material present in kidney ([3]; after intravenous injection): < 5%
apparent half-life in the blood (slower phase) ([3]; intravenous): ~ 30 min
clearance kinetics from the blood ([3]; intravenous): biphasic kinetics

NC(Cc1ccc(O)c(-c2cc(CC(N)C(=O)O)ccc2O)c1)C(=O)O (centres unmarked) [o,o'-dityrosine]
o,o'-dityrosine content of resident thioglycollate-elicited neutrophils ([4]; before zymosan): ~ 50 μmol per mol tyrosine
recovery of radioactive material in the urine (in words) ([3]; between 3 h and 4 h after intravenous injection): recovered almost quantitatively

thioglycollate
eosinophils among harvested phagocytes (peritoneal phagocytes; n=6 animals): < 1%
mononuclear cells among harvested phagocytes (peritoneal phagocytes; n=6 animals): 30±4%
neutrophils among harvested phagocytes (peritoneal phagocytes; n=6 animals): 67±4%
peritoneal cells yielded (peritoneal phagocytes; thioglycollate-injected mice): 20-40 ×10^6 peritoneal cells

zymosan
time of peak of protein-bound o,o'-dityrosine ([4]; after zymosan injection): 3 h
increase of o,o'-dityrosine in cellular proteins ([4]; neutrophils exposed to zymosan in vivo): 4 fold
o,o'-dityrosine in phagocyte proteins [5]: undetectable
increase in protein-bound dityrosine ([5]; p<0.0005): completely abrogated
